This note sets out measurements from patent publication US8461120B2, “Macrocyclic compounds pounds and methods of use thereof” (Synovo GmbH, priority 2004, dated 2013).

What all share (format): cell-based
In assay [1] the test system is NO. The assay is described as follows: Suppression of pro-inflammatory responses in isolated cells: NO. To be noted: for activity at 8 µM: read-out: NO (% control) at 8 μM; for Potency in NO suppression vs. Dexamethasone: relative to Dexamethasone.
The test system of assay [2] is IFNg. Nature of the assay: Suppression of pro-inflammatory responses in isolated cells: IFNg. The note with it: for activity at 8 µM: read-out: IFNg (% control) at 8 μM.
In assay [3] the test system is KC. Nature of the assay: LPS-stimulated mouse whole blood, production of the chemotactic cytokine KC (bioplex). To be noted: Neutrophil, 1.5 h; fresh mouse whole blood stimulated by LPS, incubated 90 minutes; read-out: EC50 of modulation of the neutrophil migration factor KC. The procedure: FIG. 2. is a graph showing the response of murine blood cells to varying concentrations of a compound of the invention (see Example 31) based on the production of the chemotactic cytokine “KC”. Fresh mouse whole blood was stimulated by LPS and incubated for 90 minutes. KC was quantified by bioplex.

As to `C[C@@H]1C[C@H]2[C@@H]3CCC4=CC(=O)C=C[C@]4(C)[C@@]3(F)[C@@H](O)C[C@]2(C)[C@@]1(O)C(=O)CO` [Dexamethasone, reference compound], the values for the activity at 8 µM in assay [1] and in assay [2] were 3.4% and 4.3%, respectively.

Turning to `CC[C@H]1OC(=O)[C@H](C)[C@@H](O[C@H]2C[C@@](C)(OC)[C@@H](O)[C@H](C)O2)[C@H](C)[C@@H](O[C@@H]2O[C@H](C)CC(N(C)CC(O)CNCCCCN)[C@H]2O)[C@](C)(O)C[C@@H](C)CN(C)[C@H](C)[C@@H](O)[C@]1(C)O` (stereo partly shown) [Example 29], in assay [1], the “Potency in NO suppression vs. Dexamethasone” value is 0.6.

As to `CCCCCCCCNCC(O)CN(C)C1C[C@@H](C)O[C@@H](O[C@@H]2[C@@H](C)[C@H](O[C@H]3C[C@@](C)(OC)[C@@H](O)[C@H](C)O3)[C@@H](C)C(=O)O[C@H](CC)[C@@](C)(O)[C@H](O)[C@@H](C)N(C)C[C@H](C)C[C@@]2(C)O)[C@@H]1O` (stereo partly shown) [Example 31], the EC50 in assay [3] is approximately 100 nM. For the same compound, the activity at 8 µM in assay [1] was determined as 4.7%; in assay [2], 4.4%.

Turning to `CCCCCNCC(O)CN(C)C1C[C@@H](C)O[C@@H](O[C@@H]2[C@@H](C)[C@H](O[C@H]3C[C@@](C)(OC)[C@@H](O)[C@H](C)O3)[C@@H](C)C(=O)O[C@H](CC)[C@@](C)(O)[C@H](O)[C@@H](C)N(C)C[C@H](C)C[C@@]2(C)O)[C@@H]1O` (stereo partly shown) [Example 32], the figures for the activity at 8 µM in assay [1] and in assay [2] were 6.8% and 3.7%, respectively.

Regarding `CCCCC(CC)CNCC(O)CN(C)C1C[C@@H](C)O[C@@H](O[C@@H]2[C@@H](C)[C@H](O[C@H]3C[C@@](C)(OC)[C@@H](O)[C@H](C)O3)[C@@H](C)C(=O)O[C@H](CC)[C@@](C)(O)[C@H](O)[C@@H](C)N(C)C[C@H](C)C[C@@]2(C)O)[C@@H]1O` (stereo partly shown) [Example 33], the results for the activity at 8 µM in assay [1] and in assay [2] were 3.2% and 3.8%, respectively.

Regarding `CC[C@H]1OC(=O)[C@H](C)[C@@H](O[C@H]2C[C@@](C)(OC)[C@@H](O)[C@H](C)O2)[C@H](C)[C@@H](O[C@@H]2O[C@H](C)CC(N(C)CC(O)CNCC(OC)OC)[C@H]2O)[C@](C)(O)C[C@@H](C)CN(C)[C@H](C)[C@@H](O)[C@]1(C)O` (stereo partly shown) [Example 35], the “Potency in NO suppression vs. Dexamethasone” value in assay [1] amounted to 0.5.

In the case of `CC[C@H]1OC(=O)[C@H](C)[C@@H](O[C@H]2C[C@@](C)(OC)[C@@H](O)[C@H](C)O2)[C@H](C)[C@@H](O[C@@H]2O[C@H](C)CC(N(C)CC(O)CNc3ncc(C)s3)[C@H]2O)[C@](C)(O)C[C@@H](C)CN(C)[C@H](C)[C@@H](O)[C@]1(C)O` (stereo partly shown) [Example 41], the “Potency in NO suppression vs. Dexamethasone” value in assay [1] is 0.5.

`CC[C@H]1OC(=O)[C@H](C)[C@@H](O[C@H]2C[C@@](C)(OC)[C@@H](O)[C@H](C)O2)[C@H](C)[C@@H](O[C@@H]2O[C@H](C)CC(N(C)CC(O)CNc3cc(C)ccn3)[C@H]2O)[C@](C)(O)C[C@@H](C)CN(C)[C@H](C)[C@@H](O)[C@]1(C)O` (stereo partly shown) [Example 42]: in assay [1], the “Potency in NO suppression vs. Dexamethasone” value is 0.8.

Turning to `CC[C@H]1OC(=O)[C@H](C)[C@@H](O[C@H]2C[C@@](C)(OC)[C@@H](O)[C@H](C)O2)[C@H](C)[C@@H](O[C@@H]2O[C@H](C)CC(N(C)CC(O)CN3CCC(O)CC3)[C@H]2O)[C@](C)(O)C[C@@H](C)CN(C)[C@H](C)[C@@H](O)[C@]1(C)O` (stereo partly shown) [Example 47], the “Potency in NO suppression vs. Dexamethasone” value in assay [1] is 0.5.

As for `CCCCN(CCCC)CCCNCC(O)CN(C)C1C[C@@H](C)O[C@@H](O[C@@H]2[C@@H](C)[C@H](O[C@H]3C[C@@](C)(OC)[C@@H](O)[C@H](C)O3)[C@@H](C)C(=O)O[C@H](CC)[C@@](C)(O)[C@H](O)[C@@H](C)N(C)C[C@H](C)C[C@@]2(C)O)[C@@H]1O` (stereo partly shown) [Example 49], the activity at 8 µM in assay [1] was found to be 48.2%; in assay [2], 4.3%.

As to `CCCN(CCO)CC(O)CN(C)C1C[C@@H](C)O[C@@H](O[C@@H]2[C@@H](C)[C@H](O[C@H]3C[C@@](C)(OC)[C@@H](O)[C@H](C)O3)[C@@H](C)C(=O)O[C@H](CC)[C@@](C)(O)[C@H](O)[C@@H](C)N(C)C[C@H](C)C[C@@]2(C)O)[C@@H]1O` (stereo partly shown) [Example 50], the values for the activity at 8 µM in assay [1] and in assay [2] were 3.9% and 4%, respectively.

With `CC[C@H]1OC(=O)[C@H](C)[C@@H](O[C@H]2C[C@@](C)(OC)[C@@H](O)[C@H](C)O2)[C@H](C)[C@@H](O[C@@H]2O[C@H](C)CC(N(C)CC(O)CN3CCN(C=O)CC3)[C@H]2O)[C@](C)(O)C[C@@H](C)CN(C)[C@H](C)[C@@H](O)[C@]1(C)O` (stereo partly shown) [Example 56], the “Potency in NO suppression vs. Dexamethasone” value in assay [1] is 0.6.

As to `CC[C@H]1OC(=O)[C@H](C)[C@@H](O[C@H]2C[C@@](C)(OC)[C@@H](O)[C@H](C)O2)[C@H](C)[C@@H](O[C@@H]2O[C@H](C)CC(N(C)CC(O)COc3cccc(O)c3)[C@H]2O)[C@](C)(O)C[C@@H](C)CN(C)[C@H](C)[C@@H](O)[C@]1(C)O` (stereo partly shown) [Example 59], the activity at 8 µM in assay [1] stood at 99.2%; in assay [2] it was 96.9%.

In the case of `CC[C@H]1OC(=O)[C@H](C)[C@@H](O[C@H]2C[C@@](C)(OC)[C@@H](O)[C@H](C)O2)[C@H](C)[C@@H](O[C@@H]2O[C@H](C)CC(N(C)CC(O)COc3ccc(OC)cc3)[C@H]2O)[C@](C)(O)C[C@@H](C)CN(C)[C@H](C)[C@@H](O)[C@]1(C)O` (stereo partly shown) [Example 60], the activity at 8 µM was 33.7% in assay [1] and 5.7% in assay [2].

On to `CC[C@H]1OC(=O)[C@H](C)[C@@H](O[C@H]2C[C@@](C)(OC)[C@@H](O)[C@H](C)O2)[C@H](C)[C@@H](O[C@@H]2O[C@H](C)CC(N(C)CC(O)COc3ccc(B(O)O)cc3)[C@H]2O)[C@](C)(O)C[C@@H](C)CN(C)[C@H](C)[C@@H](O)[C@]1(C)O` (stereo partly shown) [Example 61], for which the results for the activity at 8 µM in assay [1] and in assay [2] were 74.2% and 15.6%, respectively.

Turning to `CC[C@H]1OC(=O)[C@H](C)[C@@H](O[C@H]2C[C@@](C)(OC)[C@@H](O)[C@H](C)O2)[C@H](C)[C@@H](O[C@@H]2O[C@H](C)CC(N(C)CC(O)COc3ccc(C(=O)OC)cc3)[C@H]2O)[C@](C)(O)C[C@@H](C)CN(C)[C@H](C)[C@@H](O)[C@]1(C)O` (stereo partly shown) [Example 62], the activity at 8 µM in assay [1] stood at 63.4%; in assay [2], 5.3%.

As for `CC[C@H]1OC(=O)[C@H](C)[C@@H](O[C@H]2C[C@@](C)(OC)[C@@H](O)[C@H](C)O2)[C@H](C)[C@@H](O[C@@H]2O[C@H](C)CC(N(C)CC(O)COC(=O)CNC(=O)OC(C)(C)C)[C@H]2O)[C@](C)(O)C[C@@H](C)CN(C)[C@H](C)[C@@H](O)[C@]1(C)O` (stereo partly shown) [Example 63], the values for the activity at 8 µM in assay [1] and in assay [2] were 3.9% and 4.4%, respectively.

`CC[C@H]1OC(=O)[C@H](C)[C@@H](O[C@H]2C[C@@](C)(OC)[C@@H](O)[C@H](C)O2)[C@H](C)[C@@H](O[C@@H]2O[C@H](C)CC(N(C)CC(O)COC(=O)c3nccc4ccccc34)[C@H]2O)[C@](C)(O)C[C@@H](C)CN(C)[C@H](C)[C@@H](O)[C@]1(C)O` (stereo partly shown) [Example 65]: the activity at 8 µM came to 77.6% in assay [1] and 30.9% in assay [2].

`CCC1OC(=O)C(C)C(OC2CC(C)(OC)C(O)C(C)O2)C(C)C(OC2OC(C)CC(N(C)CC3CO3)C2O)C(C)(O)CC(C)C(=O)C(C)C(O)C1(C)O` (stereo not shown) [Example 67, 3′-N-demethyl-3′-N-(oxiranylmethyl)erythromycin]: the “NO (% control) at 8 μM” value in assay [1] turned out to be 70.0 % control. For the same compound, in assay [2], the “IFNg (% control) at 8 μM” value came out at 6.0 % control.

As for `CC[C@H]1OC(=O)[C@H](C)[C@@H](OC2C[C@@](C)(OC)[C@@H](O)[C@H](C)O2)C[C@@H](OC2O[C@H](C)C[C@H](N(C)CC(O)CNc3ncc(C)s3)[C@H]2O)[C@](C)(O)C[C@@H](C)C(=O)[C@H](C)[C@@H](O)[C@]1(C)O` (stereo partly shown) [Example 68], the activity at 8 µM in assay [1] worked out at 2.9%; in assay [2], 4.3%.

With `CC[C@H]1OC(=O)[C@H](C)C2(O)O[C@@](C)(C[C@@H](C)CN(C)[C@H](C)[C@@H](O)[C@]1(C)O)[C@H](O[C@@H]1O[C@H](C)CC(N(C)CC(O)COC(=O)c3cnc4ccccc4c3)C1O)[C@H]2C` (stereo partly shown) [Example 75], the activity at 8 µM was 96.8% in assay [1] and 88.8% in assay [2].

As to `CC[C@H]1OC(=O)[C@H](C)[C@@H](OC2CC(C)(OC)C(O)C(C)O2)[C@H](C)[C@@H](OC2OC(C)CC(NC)C2O)C(C)(O)C[C@@H](C)C(=O)[C@H](C)[C@@H](O)C1(C)O` (stereo partly shown) [desmethyl erythromycin, reference compound], the “NO (% control) at 8 μM” value in assay [1] is 37.1 % control. In addition, the “IFNg (% control) at 8 μM” value in assay [2] is 6.3 % control.

On to descladinosyltetraacetal azithromycin, for which the “Potency in NO suppression vs. Dexamethasone” value in assay [1] was determined as 0.6.
